Experimental data as given in patent US20210283099A1, “CDC7 KINASE INHIBITORS AND USES THEREOF” (SLOAN-KETTERING INSTITUTE FOR CANCER RESEARCH, priority 2010, published 2021).
Read-outs that look alike come from different tables or passages of the source.

Assays:
PhALL3.1 = assay: Cytotoxicity assay (Alamar blue), patient leukemia sample; assay type: cell-based, human; conditions: for IC50: Homo sapiens, PhALL3.1
Protocol: (§1) FIGS. 16A-16B. Granaticin A and Granaticin B inhibit multiple tumor types: The indicated cell lines and primary patient samples were tested against the compounds listed in standard cytotoxicity assays (12 point dose response using Alamar blue reduction as an indicator of cell viability). Assays were done in triplicate and IC50 determinations were run in 12-point serial dilutions from […] to 5 nM. […] These include ras and EGFR gatekeeper mutation containing cell lines in addition to p53 mutant cell lines and other known chemotherapy resistant cell lines. Specifically, this included multi-drug resistance phenotype (MDR-overexpressing) cell lines from multiple hematologic and solid tumor cell lines. Table 1 highlights a series of primary patient leukemia samples-both acute and chronic and treatment naïve and refractory tested against granaticins A and B and Derivatives 1 and 2 (see Examples).
(§2) Table 1 highlights a series of primary patient leukemia samples-both acute and chronic and treatment naïve and refractory and the effect of granaticin A, granaticin B, derivative 1, and derivative 2 to inhibit cellular proliferation. […] The two starred samples represent serial samples taken from the same patients after they received 2-3 cycles of additional high dose salvage chemotherapy and indicate that although refractory to salvage chemotherapy, the Cdc7 pathway remains a potentially efficacious target as the sensitivity to these compounds remains unchanged. Importantly, each patient sample was resistant to the prior therapy received using this assay.

HeLa = assay: FACS and caspase-3 assay in HeLa cells; assay type: cell-based, human; conditions: for cell cycle profile: 24 hours (granaticin B 1 microM)
Protocol: (§3) FIGS. 23A-23C. Granaticin A and B are not cytotoxic to normal diploid cells: FIGS. 23A-23B: Granaticin B exposure is not cytotoxic to normal diploid cells. Either HeLa or RPE (retinal pigment epithelial cells, a normal human diploid cell line) cells were incubated in carrier control (DMSO) or granaticin B (1 microM) for 24 hours and samples were subjected to standard FACS analysis with the x-axis indicating DNA content (FIG. 23A). […] FIG. 23C: Granaticin A exposure is not cytotoxic to normal diploid cells. Either HeLa or RPE (retinal pigment epithelial cells, a normal diploid cell line) cells were incubated in carrier control (DMSO) or granaticin A for 24 hours and samples were subjected to standard FACS analysis with FL2 indicating DNA content.

AML, de novo = assay: Cytotoxicity assay (Alamar blue), patient leukemia sample; assay type: cell-based; conditions: Homo sapiens
Protocol: as §1, §2

AML, primary refractory = assay: as above; assay type: cell-based; conditions: Homo sapiens
Protocol: as §1, §2

ALL, Ph+ = assay: as above; assay type: cell-based; conditions: Homo sapiens
Protocol: as §1, §2

AML, relapsed s/p HSCT = assay: as above; assay type: cell-based; conditions: Homo sapiens
Protocol: as §1, §2

[1] = test system: Biphenotypic acute leukemia 1; assay: as above; assay type: cell-based; conditions: Homo sapiens
Protocol: as §1, §2

CML, untreated = assay: as above; assay type: cell-based; conditions: Homo sapiens
Protocol: as §1, §2

[2] = test system: AML, primary refractory 1*; assay: as above; assay type: cell-based; conditions: Homo sapiens, second sample from the same patient following high-dose chemotherapy
Protocol: as §1, §2

[3] = test system: Biphenotypic acute leukemia 1*; assay: as above; assay type: cell-based; conditions: Homo sapiens, second sample from the same patient following high-dose chemotherapy
Protocol: as §1, §2

AML, relapsed = assay: as above; assay type: cell-based; conditions: Homo sapiens
Protocol: as §1, §2

[4] = test system: CLL, untreated, chromosome 17 p del.; assay: as above; assay type: cell-based; conditions: Homo sapiens
Protocol: as §1, §2

AMMoL = assay: as above; assay type: cell-based; conditions: Homo sapiens
Protocol: as §1, §2

[5] = test system: AML, primary refractory 1; assay: as above; assay type: cell-based; conditions: Homo sapiens
Protocol: as §1, §2

[6] = test system: RPE (retinal pigment epithelial cells); assay: FACS and caspase-3 assay in normal diploid cells; assay type: cell-based
Protocol: as §3

HeLa S3 cells = assay: Double thymidine block and release, FACS and morphology; assay type: cell-based, human; conditions: for morphologic appearance: 15 hours release from double thymidine block; for cell cycle progression by FACS: cells synchronized at the G1/S transition and released into compound
Protocol: FIG. 9. […] Synchronized cells (time zero) were released into media containing granaticin A for the indicated times and standard FACS analysis performed looking at DNA content.
FIG. 11. Cell cycle arrest in Hela S3 cells: Morphologic appearance of control (DMSO), granaticin A, and granaticin B treated HeLa S3 cells following 15 hours release from double thymidine block. […] The corresponding FACS profiles are shown.

MIHA = assay: Cytotoxicity assay (Alamar blue); assay type: cell-based; conditions: Homo sapiens, Patient sample of relapsed/refractory acute biphenotypic leukemia (refractory to allogeneic bone marrow transplant)
Protocol: as §1

JOBL = assay: Cytotoxicity assay (Alamar blue); assay type: cell-based; conditions: Homo sapiens, Patient sample of relapsed/refractory acute myelogenous leukemia
Protocol: as §1

RADO = assay: Cytotoxicity assay (Alamar blue); assay type: cell-based; conditions: Homo sapiens, Patient sample of primary refractory AML with multiple chromosomal abnormalities (−5, −7)
Protocol: as §1

JUCO = assay: Cytotoxicity assay (Alamar blue); assay type: cell-based; conditions: Homo sapiens, Patient sample of pre-B cell ALL with t(4;11) involving the MLL gene
Protocol: as §1

MCF-10A = assay: Cytotoxicity assay (Alamar blue); assay type: cell-based; conditions: human normal mammary epithelium
Protocol: as §1

JAKL = assay: Cytotoxicity assay (Alamar blue); assay type: cell-based; conditions: Homo sapiens, Patient sample of CLL with trisomy of chromosome 12 and unmutated Ig heavy chain locus
Protocol: as §1

MCF-7 = assay: Cytotoxicity assay (Alamar blue); assay type: cell-based; conditions: MCF7, human invasive breast ductal carcinoma, estrogen and progesterone receptor positive
Protocol: as §1

132 = assay: Cytotoxicity assay (Alamar blue); assay type: cell-based; conditions: Homo sapiens, Patient sample of Chronic Lymphocytic Leukemia
Protocol: as §1

A549 = assay: Cytotoxicity assay (Alamar blue); assay type: cell-based; conditions: Human lung adenocarcinoma, G12S KRAS mutation
Protocol: as §1

TC71 = assay: Cytotoxicity assay (Alamar blue); assay type: cell-based; conditions: TC-71, Human Ewing's sarcoma
Protocol: as §1

H358 = assay: Cytotoxicity assay (Alamar blue); assay type: cell-based; conditions: NCI-H358, Human lung adenocarcinoma, G13C KRAS mutation
Protocol: as §1

RORI = assay: Cytotoxicity assay (Alamar blue); assay type: cell-based; conditions: Homo sapiens, Patient sample of relapsed/refractory AML with trisomy of chromosome #8
Protocol: as §1

HL60 MX1 = assay: Cytotoxicity assay (Alamar blue); assay type: cell-based; conditions: Homo sapiens, MDR variant of HL60 selected with mitoxantrone-clone 1
Protocol: as §1

[7] = relapsed (first of two such lines, r11)
[8] = relapsed (second of two such lines, r12)

Row | SMILES | IC50 (PhALL3.1) [nM] | cell cycle profile (HeLa) | IC50 (AML, de novo) [nM] | IC50 (AML, primary refractory) [nM] | IC50 (ALL, Ph+) [nM] | IC50 (AML, relapsed s/p HSCT) [nM] | IC50 [1] [nM] | IC50 (CML, untreated) [nM] | IC50 [2] [nM] | IC50 [3] [nM] | IC50 (AML, relapsed; [7]) [nM] | IC50 (AML, relapsed; [8]) [nM] | IC50 [4] [nM] | IC50 (AMMoL) [nM] | IC50 [5] [nM] | morphologic appearance (HeLa S3 cells) | cell cycle progression by FACS (HeLa S3 cells) | IC50 (MIHA) [nM] | IC50 (JOBL) [nM] | IC50 (RADO) [nM] | other results
1 | CC1OC2CC(O)C1(O)c1c(O)c3c(c(O)c12)C(=O)C1=C(C3=O)[C@H](C)O[C@H]2CC(=O)O[C@@H]12 (some centres unmarked) [Granaticin A, granaticin A] | 140 | apoptotic cell death | 720 | 770 | 560 | 1880 | 300 | 260 | 630 | 540 | 1200 | 210 | 460 | 990 | 750 | arrested with flattened morphology and peri-nuclear vacuolization | S phase progression is also blocked | 300 | 560 | 60 | activity in the cell based assays (PhALL3.1; PhALL3.1 cell line): very active; cell cycle profile [6]: unaffected; IC50 (JUCO): 80 nM; IC50 (MCF-10A): 260 nM; IC50 (JAKL): 50 nM; IC50 (MCF-7): 170 nM; IC50 132: 130 nM; IC50 (A549): 280 nM; IC50 (TC71): 150 nM; IC50 (H358): 210 nM; IC50 (RORI): 1200 nM; IC50 (HL60 MX1): 170 nM
2 | CC1OC2CC(O[C@H]3CC[C@H](O)[C@H](C)O3)C1(O)c1c(O)c3c(c(O)c12)C(=O)C1=C(C3=O)[C@H](C)O[C@H]2CC(=O)O[C@@H]12 (some centres unmarked) [Granaticin B, granaticin B] | 30 | apoptotic cell death | 180 | 140 | 190 | 620 | 40 | 80 | 100 | 100 | 100 | 50 | 310 | 490 | 110 | nuclear blebbing and cell death | Induces Cell Cycle Arrest | 40 | 190 | 30 | caspase-3 activation (HeLa; 1 microM): only activated in HeLa cells; caspase-3 activation ([6]; RPE cells, 1 microM): does not result in caspase-3 activation; cell cycle profile ([6]; RPE cells, 24 hours (granaticin B 1 microM)): essentially unaffected; IC50 (JUCO): 10 nM; IC50 (MCF-10A): 240 nM; IC50 (JAKL): 10 nM; IC50 (MCF-7): 130 nM; IC50 132: 10 nM; IC50 (A549): 90 nM; IC50 (TC71): 90 nM; IC50 (H358): 50 nM; IC50 (RORI): 100 nM; IC50 (HL60 MX1): 80 nM
